# Assay results published in article PMC5218480 (PLoS ONE, 2017).
# Test system: MV-4-11 cells
# Experiment: Gene expression microarray analysis (Affymetrix PrimeView) and GSEA
# Format: cell-based, human
# Parameters: RFU PODN (11730768_x_at) / Fold change /veh PODN (11730768_x_at) / RFU LINC00158 (11744669_a_at) / Fold change /veh LINC00158 (11744669_a_at) / RFU DUSP10 (11751237_a_at) / Fold change /veh DUSP10 (11751237_a_at) / RFU ID3 (11757404_x_at) / Fold change /veh ID3 (11757404_x_at) / RFU PLEKHG5 (11737974_s_at) / Fold change /veh PLEKHG5 (11737974_s_at) / RFU LRRC4B (11730491_at) / Fold change /veh LRRC4B (11730491_at) / RFU GIMAP4 (11747438_a_at) / Fold change /veh GIMAP4 (11747438_a_at) / RFU KRT8 (11758183_x_at) / Fold change /veh KRT8 (11758183_x_at) / RFU CNN1 (11734310_a_at) / Fold change /veh CNN1 (11734310_a_at) / RFU VPS37D (11726825_at) / Fold change /veh VPS37D (11726825_at) / RFU C10orf10 (11716522_x_at) / Fold change /veh C10orf10 (11716522_x_at) / RFU KIR2DL2 /// KIR2DL4 /// KIR2DL5A /// KIR2DL5B /// KIR2DS1 /// KIR2DS2 /// KIR2DS3 /// KIR2DS4 /// KIR3DL3 /// KIR3DL3 /// KIR3DS1 (11738374_at) / Fold change /veh KIR2DL2 /// KIR2DL4 /// KIR2DL5A /// KIR2DL5B /// KIR2DS1 /// KIR2DS2 /// KIR2DS3 /// KIR2DS4 /// KIR3DL3 /// KIR3DL3 /// KIR3DS1 (11738374_at) / RFU C1QL1 (11718748_at) / Fold change /veh C1QL1 (11718748_at) / RFU TMPRSS4 (11747572_a_at) / Fold change /veh TMPRSS4 (11747572_a_at) / RFU HAMP (11756126_x_at) / Fold change /veh HAMP (11756126_x_at) / RFU RNFT2 (11725882_a_at) / Fold change /veh RNFT2 (11725882_a_at) / RFU NR4A2 (11747474_a_at) / Fold change /veh NR4A2 (11747474_a_at) / RFU ABCC12 (11746883_a_at) / Fold change /veh ABCC12 (11746883_a_at) / RFU TMEM136 (11760407_x_at) / Fold change /veh TMEM136 (11760407_x_at) / RFU CLDN22 /// WWC2 (11732394_at) / Fold change /veh CLDN22 /// WWC2 (11732394_at) / RFU HLA-DPB1 (11760878_x_at) / Fold change /veh HLA-DPB1 (11760878_x_at) / RFU SPINT1 (11716480_a_at) / Fold change /veh SPINT1 (11716480_a_at) / RFU GAP43 (11754022_s_at) / Fold change /veh GAP43 (11754022_s_at) / RFU A4GNT (11735810_at) / Fold change /veh A4GNT (11735810_at) / RFU PRB3 (11715151_x_at) / Fold change /veh PRB3 (11715151_x_at) / RFU TUBB4B (11761932_at) / Fold change /veh TUBB4B (11761932_at) / RFU CAPN14 (11732068_a_at) / Fold change /veh CAPN14 (11732068_a_at) / RFU TMCC2 (11721928_a_at) / Fold change /veh TMCC2 (11721928_a_at) / RFU IRGQ (11745062_a_at) / Fold change /veh IRGQ (11745062_a_at) / RFU FAM174B (11720279_a_at) / Fold change /veh FAM174B (11720279_a_at) / RFU TMPRSS4 (11748680_a_at) / Fold change /veh TMPRSS4 (11748680_a_at) / RFU FAM212B (11763350_a_at) / Fold change /veh FAM212B (11763350_a_at) / RFU PLEKHG5 (11743358_a_at) / Fold change /veh PLEKHG5 (11743358_a_at) / RFU ZSCAN30 (11745921_a_at) / Fold change /veh ZSCAN30 (11745921_a_at) / RFU CMKLR1 (11741424_a_at) / Fold change /veh CMKLR1 (11741424_a_at) / RFU LOC101060620 /// MAPK8IP1 (11723275_at) / Fold change /veh LOC101060620 /// MAPK8IP1 (11723275_at) / RFU SPTSSB (11747773_x_at) / Fold change /veh SPTSSB (11747773_x_at) / RFU PRSS12 (11739890_at) / Fold change /veh PRSS12 (11739890_at) / RFU BIN1 (11741810_x_at) / Fold change /veh BIN1 (11741810_x_at) / RFU WNT11 (11732464_a_at) / Fold change /veh WNT11 (11732464_a_at) / RFU C10orf10 (11716521_a_at) / Fold change /veh C10orf10 (11716521_a_at) / RFU C5orf56 (11738089_at) / Fold change /veh C5orf56 (11738089_at) / RFU CYB561 (11721691_x_at) / Fold change /veh CYB561 (11721691_x_at) / RFU ANKRD19P (11752326_a_at) / Fold change /veh ANKRD19P (11752326_a_at) / RFU OR2T12 /// OR2T33 /// OR2T8 (11738714_s_at) / Fold change /veh OR2T12 /// OR2T33 /// OR2T8 (11738714_s_at) / RFU VCAN (11748164_a_at) / Fold change /veh VCAN (11748164_a_at) / RFU JSRP1 (11732532_at) / Fold change /veh JSRP1 (11732532_at) / RFU KRTAP10-11 (11738290_x_at) / Fold change /veh KRTAP10-11 (11738290_x_at) / RFU MYO3A (11730013_a_at) / Fold change /veh MYO3A (11730013_a_at) / RFU EBF3 (11725865_a_at) / Fold change /veh EBF3 (11725865_a_at) / RFU CAMK2N1 (11719241_x_at) / Fold change /veh CAMK2N1 (11719241_x_at) / RFU C5orf56 (11738088_a_at) / Fold change /veh C5orf56 (11738088_a_at) / RFU OLFML3 (11715873_a_at) / Fold change /veh OLFML3 (11715873_a_at) / RFU LOC100653217 /// NTM (11731650_a_at) / Fold change /veh LOC100653217 /// NTM (11731650_a_at) / RFU MAPK11 (11762145_a_at) / Fold change /veh MAPK11 (11762145_a_at) / RFU FIZ1 (11724087_x_at) / Fold change /veh FIZ1 (11724087_x_at) / RFU OASL (11726364_x_at) / Fold change /veh OASL (11726364_x_at) / RFU SOX15 (11748057_x_at) / Fold change /veh SOX15 (11748057_x_at) / RFU CD79A (11719716_a_at) / Fold change /veh CD79A (11719716_a_at) / RFU HIST1H1D (11736915_at) / Fold change /veh HIST1H1D (11736915_at) / RFU CASKIN2 (11723855_a_at) / Fold change /veh CASKIN2 (11723855_a_at) / RFU LOC730098 (11760151_x_at) / Fold change /veh LOC730098 (11760151_x_at) / RFU OR4N2 (11742367_at) / Fold change /veh OR4N2 (11742367_at) / RFU PRRT2 (11749266_a_at) / Fold change /veh PRRT2 (11749266_a_at) / RFU SNX32 (11753110_a_at) / Fold change /veh SNX32 (11753110_a_at) / RFU CDHR5 (11726645_a_at) / Fold change /veh CDHR5 (11726645_a_at) / RFU RCAN1 (11760418_a_at) / Fold change /veh RCAN1 (11760418_a_at) / RFU FAM167A (11723789_a_at) / Fold change /veh FAM167A (11723789_a_at) / RFU FAM26E (11764081_at) / Fold change /veh FAM26E (11764081_at) / RFU ISYNA1 (11749810_s_at) / Fold change /veh ISYNA1 (11749810_s_at) / RFU ACY1 (11761880_at) / Fold change /veh ACY1 (11761880_at) / RFU 11764098_at / Fold change /veh 11764098_at / RFU SAMD14 (11745864_x_at) / Fold change /veh SAMD14 (11745864_x_at) / RFU NPB (11741838_a_at) / Fold change /veh NPB (11741838_a_at) / RFU TMPRSS6 (11731388_a_at) / Fold change /veh TMPRSS6 (11731388_a_at) / RFU KRTAP10-2 (11738614_at) / Fold change /veh KRTAP10-2 (11738614_at) / RFU ARHGAP8 /// PRR5-ARHGAP8 (11727945_x_at) / Fold change /veh ARHGAP8 /// PRR5-ARHGAP8 (11727945_x_at) / RFU KRTAP5-7 /// NADSYN1 (11734609_at) / Fold change /veh KRTAP5-7 /// NADSYN1 (11734609_at) / RFU RASL12 (11751679_a_at) / Fold change /veh RASL12 (11751679_a_at) / RFU CDKN2B (11736163_a_at) / Fold change /veh CDKN2B (11736163_a_at) / RFU PRF1 (11729649_at) / Fold change /veh PRF1 (11729649_at) / RFU, ZNF638 /// ZNF638-IT1 / Fold change vs veh, ZNF638 /// ZNF638-IT1 / RFU, PANK3 / Fold change vs veh, PANK3 / RFU, SH3YL1 / Fold change vs veh, SH3YL1 / RFU, ZEB2 / Fold change vs veh, ZEB2 / RFU, NRIP1 / Fold change vs veh, NRIP1 / RFU, PTTG1IP / Fold change vs veh, PTTG1IP / RFU, CAPN2 / Fold change vs veh, CAPN2 / RFU, MED14 / Fold change vs veh, MED14 / RFU, SNORA58 / Fold change vs veh, SNORA58 / RFU, C1orf63 / Fold change vs veh, C1orf63 / RFU, LRRFIP1 / Fold change vs veh, LRRFIP1 / RFU, NDUFAF7 / Fold change vs veh, NDUFAF7 / RFU, SLC12A2 / Fold change vs veh, SLC12A2 / RFU, IBTK / Fold change vs veh, IBTK / RFU, ESF1 / Fold change vs veh, ESF1 / Fold change vs veh, TMEM50B / RFU, TAOK1 / Fold change vs veh, TAOK1 / RFU, ACBD3 / Fold change vs veh, ACBD3 / RFU, TMA16 / Fold change vs veh, TMA16 / RFU, RWDD3 / Fold change vs veh, RWDD3 / RFU, BCAT1 / Fold change vs veh, BCAT1 / RFU, EDEM3 / Fold change vs veh, EDEM3 / RFU, TMEM33 / Fold change vs veh, TMEM33 / RFU, WDR75 / Fold change vs veh, WDR75 / RFU, AHCTF1 / Fold change vs veh, AHCTF1 / RFU, TFRC / Fold change vs veh, TFRC / RFU, ZDHHC17 / Fold change vs veh, ZDHHC17 / RFU, NOM1 / Fold change vs veh, NOM1 / RFU, ARL8B / Fold change vs veh, ARL8B / RFU, ZBTB11 / Fold change vs veh, ZBTB11 / RFU, TAMM41 / Fold change vs veh, TAMM41 / RFU, KIAA1704 /// LOC100996395 / Fold change vs veh, KIAA1704 /// LOC100996395 / RFU, ING1 / Fold change vs veh, ING1 / RFU, TRMT61B / Fold change vs veh, TRMT61B / RFU, FUBP3 / Fold change vs veh, FUBP3 / RFU, TP53 / Fold change vs veh, TP53 / RFU, TNKS2 / Fold change vs veh, TNKS2 / RFU, ZFP14 / Fold change vs veh, ZFP14 / RFU, ACTR2 / Fold change vs veh, ACTR2 / RFU, PPP3R1 / Fold change vs veh, PPP3R1 / RFU, PIK3R1 / Fold change vs veh, PIK3R1 / RFU, HNRNPA1 / Fold change vs veh, HNRNPA1 / RFU, RNF170 / Fold change vs veh, RNF170 / RFU, ZNF28 / Fold change vs veh, ZNF28 / RFU, RNGTT / Fold change vs veh, RNGTT / RFU, OGT / Fold change vs veh, OGT / RFU, BRD1 / Fold change vs veh, BRD1 / RFU, MARS / Fold change vs veh, MARS / RFU, ZNF655 / Fold change vs veh, ZNF655 / RFU, FAHD1 / Fold change vs veh, FAHD1 / RFU, BDP1 / Fold change vs veh, BDP1 / RFU, LRRCC1 / Fold change vs veh, LRRCC1 / RFU, ARID1A / Fold change vs veh, ARID1A / RFU, ZNF146 / Fold change vs veh, ZNF146 / RFU, ZNF330 / Fold change vs veh, ZNF330 / RFU, GPN3 / Fold change vs veh, GPN3 / RFU, C9orf123 / Fold change vs veh, C9orf123 / RFU, N4BP2L2 / Fold change vs veh, N4BP2L2 / RFU, ARFIP1 / Fold change vs veh, ARFIP1 / RFU, FAM179B / Fold change vs veh, FAM179B / RFU, BCL10 / Fold change vs veh, BCL10 / RFU, UHRF1BP1L / Fold change vs veh, UHRF1BP1L / RFU, BET1 / Fold change vs veh, BET1 / RFU, CNOT2 / Fold change vs veh, CNOT2 / RFU, ZNF268 / Fold change vs veh, ZNF268 / Fold change vs veh, ZNF507 / RFU, DGCR2 / Fold change vs veh, DGCR2 / RFU, WDSUB1 / Fold change vs veh, WDSUB1 / Fold change vs veh, HSP90B1 /// MIR3652 / RFU, ADSS / Fold change vs veh, ADSS / RFU, GK / Fold change vs veh, GK / RFU, ZNF148 / Fold change vs veh, ZNF148 / RFU, TAF9 / Fold change vs veh, TAF9 / RFU, SLC1A5 / Fold change vs veh, SLC1A5 / RFU, SLMO2 / Fold change vs veh, SLMO2 / RFU, ABCC4 / Fold change vs veh, ABCC4 / RFU, LOC101060439 /// RAP1B / Fold change vs veh, LOC101060439 /// RAP1B / RFU, RFX7 / Fold change vs veh, RFX7 / RFU, GTPBP10 / Fold change vs veh, GTPBP10 / RFU, CNEP1R1 / Fold change vs veh, CNEP1R1 / RFU, BIVM-ERCC5 /// ERCC5 / Fold change vs veh, BIVM-ERCC5 /// ERCC5 / RFU, ILF3 / Fold change vs veh, ILF3 / RFU 11762660_at / Fold change /veh 11762660_at / RFU VCAN (11757783_s_at) / Fold change /veh VCAN (11757783_s_at) / RFU DDX43 (11728927_at) / Fold change /veh DDX43 (11728927_at) / RFU KRT8 (11758188_x_at) / Fold change /veh KRT8 (11758188_x_at) / RFU NKD1 (11759106_at) / Fold change /veh NKD1 (11759106_at) / RFU SRD5A1 (11742802_a_at) / Fold change /veh SRD5A1 (11742802_a_at) / RFU TPSAB1 /// TPSB2 (11721975_s_at) / Fold change /veh TPSAB1 /// TPSB2 (11721975_s_at) / RFU GSTM3 (11746129_a_at) / Fold change /veh GSTM3 (11746129_a_at) / RFU IL23R (11737362_x_at) / Fold change /veh IL23R (11737362_x_at) / RFU TMEM51 (11727254_a_at) / Fold change /veh TMEM51 (11727254_a_at) / RFU PIWIL2 (11732686_x_at) / Fold change /veh PIWIL2 (11732686_x_at) / RFU ORM1 (11744905_x_at) / Fold change /veh ORM1 (11744905_x_at) / RFU CCDC152 (11743942_at) / Fold change /veh CCDC152 (11743942_at) / RFU ECM1 (11717891_a_at) / Fold change /veh ECM1 (11717891_a_at) / RFU IL23R (11748794_a_at) / Fold change /veh IL23R (11748794_a_at) / RFU TNFAIP8L3 (11732012_x_at) / Fold change /veh TNFAIP8L3 (11732012_x_at) / RFU MBOAT4 (11741988_at) / Fold change /veh MBOAT4 (11741988_at) / RFU 11764193_at / Fold change /veh 11764193_at / RFU TMEM53 (11763286_at) / Fold change /veh TMEM53 (11763286_at) / RFU MAGEB2 (11727129_at) / Fold change /veh MAGEB2 (11727129_at) / RFU TMEM200A (11744735_a_at) / Fold change /veh TMEM200A (11744735_a_at) / RFU CCDC152 (11751479_a_at) / Fold change /veh CCDC152 (11751479_a_at) / RFU FAM211A (11726209_a_at) / Fold change /veh FAM211A (11726209_a_at) / RFU RGS16 (11746705_a_at) / Fold change /veh RGS16 (11746705_a_at) / RFU VCAN (11755009_s_at) / Fold change /veh VCAN (11755009_s_at) / RFU RHOB (11743442_s_at) / Fold change /veh RHOB (11743442_s_at) / RFU RGS16 (11720943_a_at) / Fold change /veh RGS16 (11720943_a_at) / RFU RGS16 (11720944_at) / Fold change /veh RGS16 (11720944_at) / RFU, VPS4B / Fold change vs veh, VPS4B / RFU, CREB1 / Fold change vs veh, CREB1 / RFU, DNAJC13 / Fold change vs veh, DNAJC13 / RFU, GNAQ / Fold change vs veh, GNAQ / RFU, CDK5R1 / Fold change vs veh, CDK5R1 / RFU, ZRANB3 / Fold change vs veh, ZRANB3 / RFU, CUL4A / Fold change vs veh, CUL4A / RFU, CCNY / Fold change vs veh, CCNY / RFU, UFL1 / Fold change vs veh, UFL1 / RFU, COG3 / Fold change vs veh, COG3 / RFU, DIAPH2 / Fold change vs veh, DIAPH2 / RFU, SKA2 / Fold change vs veh, SKA2 / RFU, AFF3 / Fold change vs veh, AFF3 / RFU, LMF1 / Fold change vs veh, LMF1 / RFU, IPO11 / Fold change vs veh, IPO11 / RFU, DFFB / Fold change vs veh, DFFB / RFU, FOXP1 / Fold change vs veh, FOXP1 / RFU, CARD8 / Fold change vs veh, CARD8 / RFU, STRN3 / Fold change vs veh, STRN3 / RFU, ADK / Fold change vs veh, ADK / RFU, RASSF2 / Fold change vs veh, RASSF2 / RFU, WIPF1 / Fold change vs veh, WIPF1 / RFU, LARP1B / Fold change vs veh, LARP1B / RFU, RASA1 / Fold change vs veh, RASA1 / RFU, RB1 / Fold change vs veh, RB1 / RFU, PPFIA1 / Fold change vs veh, PPFIA1 / RFU, MAT2A / Fold change vs veh, MAT2A / RFU, CCT5 / Fold change vs veh, CCT5 / RFU, WDR92 / Fold change vs veh, WDR92 / RFU, CUX1 / Fold change vs veh, CUX1 / RFU, TTC7A / Fold change vs veh, TTC7A / RFU, TMEM135 / Fold change vs veh, TMEM135 / RFU, DEPTOR / Fold change vs veh, DEPTOR / RFU, CPM / Fold change vs veh, CPM / RFU, DNAJB6 / Fold change vs veh, DNAJB6 / RFU, CACNA2D3 / Fold change vs veh, CACNA2D3 / RFU, DTX4 / Fold change vs veh, DTX4 / RFU, TFCP2 / Fold change vs veh, TFCP2 / RFU, GMCL1 /// GMCL1P1 / Fold change vs veh, GMCL1 /// GMCL1P1 / RFU, AEBP2 / Fold change vs veh, AEBP2 / RFU, SNHG1 /// SNORD22 /// SNORD25 /// SNORD26 /// SNORD27 /// SNORD28 /// SNORD29 /// SNORD31 / Fold change vs veh, SNHG1 /// SNORD22 /// SNORD25 /// SNORD26 /// SNORD27 /// SNORD28 /// SNORD29 /// SNORD31 / Fold change (Aza/veh), C12orf56 (ProbeSet 11735607_a_at) / Fold change (ACY-1035/veh), C12orf56 (ProbeSet 11735607_a_at) / Fold change (Aza/veh), FGFR1OP (ProbeSet 11751329_s_at) / Fold change (ACY-1035/veh), FGFR1OP (ProbeSet 11751329_s_at) / Fold change (Aza/veh), VPS36 (ProbeSet 11739960_a_at) / Fold change (ACY-1035/veh), VPS36 (ProbeSet 11739960_a_at) / RFU SYPL1 (11715823_x_at) / Fold change /veh SYPL1 (11715823_x_at) / RFU IGFBP7 (11715501_s_at) / Fold change /veh IGFBP7 (11715501_s_at) / RFU REEP3 (11722064_at) / Fold change /veh REEP3 (11722064_at) / RFU IGLL1 (11728026_x_at) / Fold change /veh IGLL1 (11728026_x_at): dose or concentration left out as unconfirmed
# Conditions: ProbeSet 11753616_s_at; LIST B
structure (smiles),measurement,value
Nc1ccc(-c2cccs2)cc1NC(=O)c1ccc2c(c1)cc(C1CC1)n2CCN1CCOCC1 [ACY-1035],"Fold change vs veh, ARL8B",0.90
